Measurements reported in US20260356840A1, “[1,2,4]TRIAZOLO[1,5-A]PYRIMIDINONE WRN INHIBITORS” (Nimbus Wadjet, Inc., priority 2023, published 2026).
pIC50: −log10 of the molar value.

Biological target: T1, human Werner helicase (Uniprot Q14191, amino acids 517-1235 with L1074F point mutation), WRN-BV08 (Homo sapiens, UniProt Q14191, L1074F)
T1 construct: Uniprot Q14191, amino acids 517-1235 with L1074F point mutation; TEV cleavable 8xHis tag (C, cleaved yes); made in house; host or cells: Sf9 insect cells (baculovirus, pFastBac)
T1 sequence (Q14191 517-1235 L1074F): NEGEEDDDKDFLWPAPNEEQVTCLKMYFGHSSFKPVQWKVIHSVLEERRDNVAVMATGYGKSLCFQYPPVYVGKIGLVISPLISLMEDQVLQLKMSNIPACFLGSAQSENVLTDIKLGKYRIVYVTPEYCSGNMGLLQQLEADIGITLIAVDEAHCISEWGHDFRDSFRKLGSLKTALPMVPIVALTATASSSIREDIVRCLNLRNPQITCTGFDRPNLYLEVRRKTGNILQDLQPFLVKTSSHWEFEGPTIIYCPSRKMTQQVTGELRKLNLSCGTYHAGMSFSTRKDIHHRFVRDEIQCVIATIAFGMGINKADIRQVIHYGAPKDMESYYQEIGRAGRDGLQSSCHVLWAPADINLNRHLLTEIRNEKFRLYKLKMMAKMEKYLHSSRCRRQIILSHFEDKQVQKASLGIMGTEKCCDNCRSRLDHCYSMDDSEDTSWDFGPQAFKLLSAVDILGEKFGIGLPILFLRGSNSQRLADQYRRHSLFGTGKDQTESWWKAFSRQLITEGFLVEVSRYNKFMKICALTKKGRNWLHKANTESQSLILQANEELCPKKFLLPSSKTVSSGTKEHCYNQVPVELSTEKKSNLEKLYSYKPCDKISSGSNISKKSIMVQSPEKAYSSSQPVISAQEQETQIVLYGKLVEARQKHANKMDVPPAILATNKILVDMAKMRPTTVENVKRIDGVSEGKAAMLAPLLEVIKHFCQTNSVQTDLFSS
Experiment: WRN (BV08) ADP-Glo Assay
Type: biochemical

Compound | pIC50
CCc1c(N2CCN(C(=O)c3c(C)cnc(C)c3O)CC2)c(=O)n2nc(C3=CCOCC3)nc2n1CC(=O)Nc1ccc(C(F)(F)F)cc1Cl [Compound I-13, N-[2-chloro-4-(trifluoromethyl)phenyl]-2-[2-(3,6-dihydro-2H-pyran-4-yl)-5-ethyl-6-[4-(3-hydroxy-2,5-dimethylpyridine-4-carbonyl)piperazin-1-yl]-7-oxo-4H,7H-[1,2,4]triazolo[1,5-a]pyrimidin-4-yl]acetamide] | 7.30 to 8.30
CCc1c(N2CCN(C(=O)c3cnn(C)c3)CC2)c(=O)n2nc(-c3cc(OC)ncn3)nc2n1CC(=O)Nc1ccc(C(F)(F)F)cc1Cl [Compound I-71, N-[2-chloro-4-(trifluoromethyl)phenyl]-2-[5-ethyl-2-(6-methoxypyrimidin-4-yl)-6-[4-(1-methyl-1H-pyrazole-4-carbonyl)piperazin-1-yl]-7-oxo-4H,7H-[1,2,4]triazolo[1,5-a]pyrimidin-4-yl]acetamide] | 7.30 to 8.30
CCc1c(N2CCN(C(=O)c3cccc4cccnc34)CC2)c(=O)n2nc(C3=CCOCC3)nc2n1CC(=O)Nc1ccc(C(F)(F)F)cc1Cl [Compound I-19, N-[2-chloro-4-(trifluoromethyl)phenyl]-2-[2-(3,6-dihydro-2H-pyran-4-yl)-5-ethyl-7-oxo-6-[4-(quinoline-8-carbonyl)piperazin-1-yl]-4H,7H-[1,2,4]triazolo[1,5-a]pyrimidin-4-yl]acetamide] | 7.30 to 8.30
CCc1c(N2CCN(C(=O)c3nsnc3O)CC2)c(=O)n2nc(C3=CCOCC3)nc2n1CC(=O)Nc1ccc(C(F)(F)F)cc1Cl [Compound I-27, N-[2-chloro-4-(trifluoromethyl)phenyl]-2-[2-(3,6-dihydro-2H-pyran-4-yl)-5-ethyl-6-[4-(4-hydroxy-1,2,5-thiadiazole-3-carbonyl)piperazin-1-yl]-7-oxo-4H,7H-[1,2,4]triazolo[1,5-a]pyrimidin-4-yl]acetamide] | 7.30 to 8.30
CCc1c(N2CCN(C(=O)c3c(O)cccc3OC)CC2)c(=O)n2nc(C3=CCOCC3)nc2n1CC(=O)Nc1ccc(C(F)(F)F)cc1Cl [Compound I-4, N-[2-chloro-4-(trifluoromethyl)phenyl]-2-[2-(3,6-dihydro-2H-pyran-4-yl)-5-ethyl-6-[4-(2-hydroxy-6-methoxybenzoyl)piperazin-1-yl]-7-oxo-4H,7H-[1,2,4]triazolo[1,5-a]pyrimidin-4-yl]acetamide] | 7.30 to 8.30
CCc1c(N2CCN(C(=O)C(C)(C)CO)CC2)c(=O)n2nc(C3=CCOCC3)nc2n1CC(=O)Nc1ccc(C(F)(F)F)cc1Cl [Compound I-20, N-[2-chloro-4-(trifluoromethyl)phenyl]-2-[2-(3,6-dihydro-2H-pyran-4-yl)-5-ethyl-6-[4-(3-hydroxy-2,2-dimethylpropanoyl)piperazin-1-yl]-7-oxo-4H,7H-[1,2,4]triazolo[1,5-a]pyrimidin-4-yl]acetamide] | 7.30 to 8.30
CCc1c(N2CCN(C(=O)c3cccc(C)c3O)CC2)c(=O)n2nc(C3=CCOCC3)nc2n1CC(=O)Nc1ccc(C(F)(F)F)cc1Cl [Compound I-3, N-[2-chloro-4-(trifluoromethyl)phenyl]-2-[2-(3,6-dihydro-2H-pyran-4-yl)-5-ethyl-6-[4-(2-hydroxy-3-methylbenzoyl)piperazin-1-yl]-7-oxo-4H,7H-[1,2,4]triazolo[1,5-a]pyrimidin-4-yl]acetamide] | 7.30 to 8.30
CCc1c(N2CCN(C(=O)c3c(O)noc3C)CC2)c(=O)n2nc(C3=CCOCC3)nc2n1CC(=O)Nc1ccc(C(F)(F)F)cc1Cl [Compound I-28, N-[2-chloro-4-(trifluoromethyl)phenyl]-2-[2-(3,6-dihydro-2H-pyran-4-yl)-5-ethyl-6-[4-(3-hydroxy-5-methyl-1,2-oxazole-4-carbonyl)piperazin-1-yl]-7-oxo-4H,7H-[1,2,4]triazolo[1,5-a]pyrimidin-4-yl]acetamide] | > 8.30
CCc1c(N2CCN(C(=O)c3cnn(C)c3)CC2)c(=O)n2nc(-c3cnc(OC)nc3)nc2n1CC(=O)Nc1ccc(C(F)(F)F)cc1Cl [Compound I-51, N-[2-chloro-4-(trifluoromethyl)phenyl]-2-[5-ethyl-2-(2-methoxypyrimidin-5-yl)-6-[4-(1-methyl-1H-pyrazole-4-carbonyl)piperazin-1-yl]-7-oxo-4H,7H-[1,2,4]triazolo[1,5-a]pyrimidin-4-yl]acetamide] | 7.30 to 8.30
CCc1c(N2CCN(C(=O)c3c(O)cccc3F)CC2)c(=O)n2nc(C3=CCOCC3)nc2n1CC(=O)Nc1ccc(C(F)(F)F)cc1Cl [Compound I-1, N-[2-chloro-4-(trifluoromethyl)phenyl]-2-[2-(3,6-dihydro-2H-pyran-4-yl)-5-ethyl-6-[4-(2-fluoro-6-hydroxybenzoyl)piperazin-1-yl]-7-oxo-4H,7H-[1,2,4]triazolo[1,5-a]pyrimidin-4-yl]acetamide] | 7.30 to 8.30

Results, then the molecule that gave them:

pIC50 | Compound
6.30 to 7.00 | COc1cc(-c2nc3n(CC(=O)Nc4ccc(C(F)(F)F)cc4Cl)cc(C4CCN(C(=O)c5ncnc(C)c5O)CC4)c(=O)n3n2)ccn1 [Compound I-81, N-[2-chloro-4-(trifluoromethyl)phenyl]-2-{6-[1-(5-hydroxy-6-methylpyrimidine-4-carbonyl)piperidin-4-yl]-2-(2-methoxypyridin-4-yl)-7-oxo-4H,7H-[1,2,4]triazolo[1,5-a]pyrimidin-4-yl}acetamide]
7.30 to 8.30 | CCc1c(N2CCN(C(=O)c3cnn(C)c3)CC2)c(=O)n2nc(-c3ccnc(OC4CC4)c3)nc2n1CC(=O)Nc1ccc(C(F)(F)F)cc1Cl [Compound I-52, N-[2-chloro-4-(trifluoromethyl)phenyl]-2-[2-(2-cyclopropoxypyridin-4-yl)-5-ethyl-6-[4-(1-methyl-1H-pyrazole-4-carbonyl)piperazin-1-yl]-7-oxo-4H,7H-[1,2,4]triazolo[1,5-a]pyrimidin-4-yl]acetamide]
7.30 to 8.30 | CCc1c(N2CCN(C(=O)c3c(C)nn(C)c3C)CC2)c(=O)n2nc(-c3ccnc(OC)c3)nc2n1CC(=O)Nc1ccc(C(F)(F)F)cc1Cl [Compound I-50, N-[2-chloro-4-(trifluoromethyl)phenyl]-2-[5-ethyl-2-(2-methoxypyridin-4-yl)-7-oxo-6-[4-(1,3,5-trimethyl-1H-pyrazole-4-carbonyl)piperazin-1-yl]-4H,7H-[1,2,4]triazolo[1,5-a]pyrimidin-4-yl]acetamide]
7.30 to 8.30 | CCc1c(N2CCN(C(=O)c3cnn(C)c3C)CC2)c(=O)n2nc(-c3ccnc(OC)c3)nc2n1CC(=O)Nc1ccc(C(F)(F)F)cc1Cl [Compound I-49, N-[2-chloro-4-(trifluoromethyl)phenyl]-2-{6-[4-(1,5-dimethyl-1H-pyrazole-4-carbonyl)piperazin-1-yl]-5-ethyl-2-(2-methoxypyridin-4-yl)-7-oxo-4H,7H-[1,2,4]triazolo[1,5-a]pyrimidin-4-yl}acetamide]
7.30 to 8.30 | CCc1c(N2CCN(C(=O)c3ncnc(C)c3O)CC2)c(=O)n2nc(-c3cnc(OC)c(C)c3)nc2n1CC(=O)Nc1ccc(C(F)(F)F)cc1Cl [Compound I-42, N-[2-chloro-4-(trifluoromethyl)phenyl]-2-{5-ethyl-6-[4-(5-hydroxy-6-methylpyrimidine-4-carbonyl)piperazin-1-yl]-2-(6-methoxy-5-methylpyridin-3-yl)-7-oxo-4H,7H-[1,2,4]triazolo[1,5-a]pyrimidin-4-yl}acetamide]
7.30 to 8.30 | CCc1c(N2CCN(C(=O)c3ncnc(C)c3O)CC2)c(=O)n2nc(-c3ccc(OC)nc3)nc2n1CC(=O)Nc1ccc(C(F)(F)F)cc1Cl [Compound I-22, N-[2-chloro-4-(trifluoromethyl)phenyl]-2-{5-ethyl-6-[4-(5-hydroxy-6-methylpyrimidine-4-carbonyl)piperazin-1-yl]-2-(6-methoxypyridin-3-yl)-7-oxo-4H,7H-[1,2,4]triazolo[1,5-a]pyrimidin-4-yl}acetamide]
7.30 to 8.30 | CCc1c(N2CCN(C(=O)c3cnn(C4CC4)c3)CC2)c(=O)n2nc(-c3ccnc(OC)c3)nc2n1CC(=O)Nc1ccc(C(F)(F)F)cc1Cl [Compound I-60, N-[2-chloro-4-(trifluoromethyl)phenyl]-2-{6-[4-(1-cyclopropyl-1H-pyrazole-4-carbonyl)piperazin-1-yl]-5-ethyl-2-(2-methoxypyridin-4-yl)-7-oxo-4H,7H-[1,2,4]triazolo[1,5-a]pyrimidin-4-yl}acetamide]
7.30 to 8.30 | CCc1c(N2CCN(C(=O)c3cc(C)ns3)CC2)c(=O)n2nc(-c3ccnc(OC)c3)nc2n1CC(=O)Nc1ccc(C(F)(F)F)cc1Cl [Compound I-76, N-[2-chloro-4-(trifluoromethyl)phenyl]-2-[5-ethyl-2-(2-methoxypyridin-4-yl)-6-[4-(3-methyl-1,2-thiazole-5-carbonyl)piperazin-1-yl]-7-oxo-4H,7H-[1,2,4]triazolo[1,5-a]pyrimidin-4-yl]acetamide]
7.30 to 8.30 | CCc1c(N2CCN(C(=O)c3coc(C)n3)CC2)c(=O)n2nc(-c3ccnc(OC)c3)nc2n1CC(=O)Nc1ccc(C(F)(F)F)cc1Cl [Compound I-75, N-[2-chloro-4-(trifluoromethyl)phenyl]-2-[5-ethyl-2-(2-methoxypyridin-4-yl)-6-[4-(2-methyl-1,3-oxazole-4-carbonyl)piperazin-1-yl]-7-oxo-4H,7H-[1,2,4]triazolo[1,5-a]pyrimidin-4-yl]acetamide]
7.30 to 8.30 | CCc1c(N2CCN(C(=O)c3ncnc(C)c3O)CC2)c(=O)n2nc(-c3ccnc(OC)c3)nc2n1CC(=O)Nc1ccc(C(F)(F)F)cc1Cl [Compound I-21, N-[2-chloro-4-(trifluoromethyl)phenyl]-2-{5-ethyl-6-[4-(5-hydroxy-6-methylpyrimidine-4-carbonyl)piperazin-1-yl]-2-(2-methoxypyridin-4-yl)-7-oxo-4H,7H-[1,2,4]triazolo[1,5-a]pyrimidin-4-yl}acetamide]
7.30 to 8.30 | CCc1c(N2CCN(C(=O)c3ncn(C)n3)CC2)c(=O)n2nc(-c3ccnc(OC)c3)nc2n1CC(=O)Nc1ccc(C(F)(F)F)cc1Cl [Compound I-73, N-[2-chloro-4-(trifluoromethyl)phenyl]-2-[5-ethyl-2-(2-methoxypyridin-4-yl)-6-[4-(1-methyl-1H-1,2,4-triazole-3-carbonyl)piperazin-1-yl]-7-oxo-4H,7H-[1,2,4]triazolo[1,5-a]pyrimidin-4-yl]acetamide]
